According to patent US20250326765A1, “PDE4B INHIBITOR AND USE THEREOF” (XIZANG HAISCO PHARMACEUTICAL CO., LTD., priority 2022, published 2025):

Key:
[1] = Pharmacokinetic test in beagle dogs; assay type: in vivo
Method: 6.1 Experimental animals: male beagle dogs, about 8-11 kg, 6 beagle dogs/compound, purchased from Beijing Marshall Biotechnology Co., Ltd.
6.2 Experimental method: On the day of the experiment, 18 beagle dogs were randomly grouped according to their body weights. The animals were fasted with water available for 12-14 h one day before administration and fed 4 h after administration. Administration was carried out according to Table 8.
Before and after administration, 1 ml of blood was taken from the jugular vein or limb vein and placed in an EDTAK2 centrifuge tube. Centrifugation was carried out at 5000 rpm at 4° C. for 10 min, and plasma was collected. The blood collection time points for the intravenous group and intragastric group were both 0 min, 5 min, 15 min, 30 min, 1 h, 2 h, 4 h, 6 h, 8 h, 10 h, 12 h, 24 h, 48 h, and 72 h. Before analysis and detection, all the samples were stored at −80° C., and the samples were subjected to quantitative analysis using LC-MS/MS.

[2] = Pharmacokinetic test in monkeys; assay type: in vivo, cynomolgus monkeys
Method: Experimental animals: Male cynomolgus monkeys, 3-5 kg, 3-6 years old, 6 monkeys/compound. Purchased from Suzhou Xishan Biotechnology Inc.
Experimental method: On the day of the experiment, 12 monkeys were randomly grouped according to their body weights. The animals were fasted with water available for 14-18 h one day before administration and fed 4 h after administration.
Before and after administration, 1.0 mL of blood sample was taken from the limb vein and placed in an EDTAK2 centrifuge tube. Centrifugation was carried out at 5000 rpm at 4° C. for 10 min, and plasma was collected. The blood collection time points for the intravenous group were 0 min, 5 min, 15 min, 30 min, 1 h, 2 h, 4 h, 6 h, 8 h, 10 h, 12 h, and 24 h. Before analysis and detection, all the samples were stored at −80° C., and the samples were subjected to quantitative analysis using LC-MS/MS.

[3] = molecular target: T1, hERG potassium ion channel (Homo sapiens, UniProt Q12809); assay: Test for hERG potassium ion channel (manual patch-clamp, CHO cells); assay type: cell-based; settings: CHO cells stably expressing hERG, whole cell patch-clamp; read-out: IC50, inhibition of hERG potassium channel current
T1 construct: expressed in transfected cells
T1 sequence (Q12809 whole entry): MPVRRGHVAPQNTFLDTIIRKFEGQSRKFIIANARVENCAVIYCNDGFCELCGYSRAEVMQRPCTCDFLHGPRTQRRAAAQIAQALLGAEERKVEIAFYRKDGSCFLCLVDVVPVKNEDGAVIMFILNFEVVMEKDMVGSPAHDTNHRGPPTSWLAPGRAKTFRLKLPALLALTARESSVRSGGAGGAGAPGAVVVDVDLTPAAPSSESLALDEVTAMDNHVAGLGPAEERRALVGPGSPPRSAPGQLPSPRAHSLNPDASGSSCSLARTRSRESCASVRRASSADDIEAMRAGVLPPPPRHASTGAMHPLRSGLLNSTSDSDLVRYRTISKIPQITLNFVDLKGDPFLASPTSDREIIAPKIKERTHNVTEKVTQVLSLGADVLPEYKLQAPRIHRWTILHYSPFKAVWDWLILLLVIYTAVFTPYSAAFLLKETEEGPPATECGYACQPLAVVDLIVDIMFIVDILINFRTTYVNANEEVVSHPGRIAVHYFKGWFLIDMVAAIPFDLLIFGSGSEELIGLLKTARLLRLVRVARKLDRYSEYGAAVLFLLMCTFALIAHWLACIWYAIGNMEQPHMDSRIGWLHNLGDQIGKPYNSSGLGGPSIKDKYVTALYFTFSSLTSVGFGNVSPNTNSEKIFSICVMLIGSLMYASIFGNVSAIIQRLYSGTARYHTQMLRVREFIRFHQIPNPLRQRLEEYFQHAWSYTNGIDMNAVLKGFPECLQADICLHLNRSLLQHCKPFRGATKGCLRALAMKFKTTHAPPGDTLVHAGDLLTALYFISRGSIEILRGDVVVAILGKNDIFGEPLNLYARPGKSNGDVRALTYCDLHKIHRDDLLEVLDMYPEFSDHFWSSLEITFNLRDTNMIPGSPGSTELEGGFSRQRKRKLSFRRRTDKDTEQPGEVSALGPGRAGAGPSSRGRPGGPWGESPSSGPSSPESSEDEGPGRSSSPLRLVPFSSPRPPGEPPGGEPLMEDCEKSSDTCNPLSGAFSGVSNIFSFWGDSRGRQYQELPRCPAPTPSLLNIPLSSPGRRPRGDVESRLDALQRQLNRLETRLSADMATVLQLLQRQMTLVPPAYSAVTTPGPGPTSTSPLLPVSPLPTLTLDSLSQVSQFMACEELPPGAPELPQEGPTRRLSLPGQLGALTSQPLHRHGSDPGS
From the text: Experimental Platform: Electrophysiological Manual Patch-Clamp System
Cell line: Chinese hamster ovary (CHO) cell line stably expressing hERG potassium ion channel
Experimental method: CHO (Chinese Hamster Ovary) cells stably expressing hERG potassium channel were subjected to a whole cell patch-clamp technique to record the hERG potassium channel current at room temperature. The glass microelectrode was made of a glass electrode blank (BF150-86-10, Sutter) by a puller. The tip resistance after filling the liquid in the electrode was about 2-5 MQ. The glass microelectrode can be connected to the patch-clamp amplifier by inserting the glass microelectrode into an amplifier probe. The clamping voltage and data recording were controlled and recorded by the pClamp 10 software through a computer. The sampling frequency was 10 kHz, and the filtering frequency was 2 kHz. After the whole cell records were obtained, the cells were clamped at −80 mV, and the step voltage that induced the hERG potassium current (IhERG) was depolarized from −80 mV to +20 mV for 2 s, then repolarized to −50 mV, and returned to −80 mV after 1 s. This voltage stimulation was given every 10 s, and the administration process was started after the hERG potassium current was confirmed to be stable (at least 1 minute). The compound was administered for at least 1 minute at each test concentration, and at least 2 cells (n: 2) were tested at each concentration.
Data processing: Data analysis processing was carried out by using pClamp 10, GraphPad Prism 5, and Excel software. The degree of inhibition on the hERG potassium current (peak value of hERG tail current induced at −50 mV) at different compound concentrations was calculated by the following formula:
[formula] • where Inhibition % represents the percentage inhibition of the compound on the hERG potassium current, and I and Io represent the amplitude of the hERG potassium current after and before administration, respectively.
Compound IC50 was calculated using GraphPad Prism 5 software by fitting according to the following equation: […]

[4] = Pharmacokinetic test in mice; assay type: in vivo, ICR mice
Method: 5.1 Experimental animals: Male ICR mice, 20-25 g, 6 mice/compound. Purchased from Chengdu Ddossy Experimental Animals Co., Ltd.
5.2 Experimental design: On the day of the experiment, 42 ICR mice were randomly grouped according to their body weights. The animals were fasted with water available for 12-14 h one day before administration and fed 4 h after administration.
Before and after administration, 0.06 mL of blood was taken from the orbit under isoflurane anesthesia and placed in an EDTAK2 centrifuge tube for centrifugation at 5000 rpm at 4-C for 10 min, followed by plasma collection. The blood collection time points for the intravenous group and intragastric group were both 0 m, 5 mi, 15 mi, 30 mi, 1 h, 2 h, 4 h, 6 h, 8 h, and 24 h. Before analysis and detection, all the samples were stored at −80° C., and the samples were subjected to quantitative analysis using LC-MS/MS.

[5] = male, dog, iv, plasma, i.v. (1 mg/kg)
[6] = male, dog, po, plasma, i.g. (5 mg/kg)
[7] = male, cynomolgus monkey, iv, plasma, i.v. (1 mg/kg)
[8] = male, ICR, mouse, iv, plasma, i.v. (5 mg/kg)
[9] = male, ICR, mouse, po, plasma, i.g. (10 mg/kg)

Molecule `[O-][S@+]1CCc2nc(N3C[C@H]4CN(c5ccc6c(c5)CC6)C[C@H]4C3)nc(NC3(CO)CCC3)c21` [Compound 31] has an F ([1]; i.g. (5 mg/kg)) of no less than 98%, an AUC(0-t) [1, 5] of 7070 ± 3250 ng·h/mL and a clearance [1, 5] of 2.69 ± 1.7 mL/min/kg. The half-life [1, 5] was 5.85 ± 0.63 h, the Vd ([1]; male, dog, iv, plasma, i.v. (1 mg/kg), read-out: Vdss) was 0.957 ± 0.37 L/kg and the AUC(0-t) [1, 6] was 26100 ± 11900 ng·h/mL. The half-life [1, 6] was 7.38 ± 1.2 h, the F ([2]; i.g. (3 mg/kg)) was 30.9 ± 13% and the AUC(0-t) [2, 7] was 8550 ± 664 ng·h/mL. The clearance [2, 7] was 1.95 ± 0.15 mL/min/kg, the Vd ([2]; male, cynomolgus monkey, iv, plasma, i.v. (1 mg/kg), read-out: Vdss) was 0.888 ± 0.16 L/kg and the AUC(0-t) ([2]; male, cynomolgus monkey, po, plasma, i.g. (3 mg/kg)) was 7930 ± 3240 ng·h/mL. The IC50 [3] was 12.2 µM.
In the case of `C#Cc1cnc(C2=CCN(c3nc4c(c(NC5(CO)CCC5)n3)[S+]([O-])CC4)CC2)nc1` (stereo not drawn) [Compound 37], the F ([4]; i.g. (10 mg/kg)) is reported as no less than 98%, the AUC(0-t) [4, 8] is reported as 6000 ± 1090 ng·h/mL and the clearance [4, 8] is reported as 7.03 ± 1.1 mL/min/kg. For the same molecule, the half-life [4, 8] was 3.34 ± 0.3 h, the Vd ([4]; male, ICR, mouse, iv, plasma, i.v. (5 mg/kg), read-out: Vdss) was 1.3 ± 0.086 L/kg and the AUC(0-t) [4, 9] was 26900 ± 3910 ng·h/mL. It also gave a half-life [4, 9] of 4.3 ± 0.69 h and an IC50 [3] of 13.3 µM.
